Measurements taken from the supplement of paper PMC10307832.

Columns and labels:
Test in all cases: relative viability (nuclei count vs DMSO), 5 days (fraction); higher = more cells survive
[1] = compound: Cc1cnc(CNC(=O)c2c(=O)c3ccc(N4CCCN(C)CC4)nc3n3c2sc2ccccc23)cn1 [CX-5461] + COc1cccc2cc(-c3nc([C@H]4CC[C@H](C(=O)O)CC4)n4ncnc(N)c34)[nH]c12 [OSI-027] (partner 0.5 µM)
Summary of the method: (§1)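 Dosing by pin tool came one day after lung cancer cell lines were seeded in 1536-well plates, using either one drug or a fixed anchor-drug dose plus five library-drug doses (not always all listed) in √10 steps. After 5 days, nuclei were counted on 4× images. Relative viability is treated-well nuclei count divided by vehicle-well nuclei count, and values are medians of duplicate plates.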

[2] = compound: Cc1cnc(CNC(=O)c2c(=O)c3ccc(N4CCCN(C)CC4)nc3n3c2sc2ccccc23)cn1 [CX-5461] + Cc1cc(Nc2cc(N3CCN(C)CC3)nc(Sc3ccc(NC(=O)C4CC4)cc3)n2)n[nH]1 [Tozasertib] (partner 0.1 µM)
Summary of the method: as §1

[3] = compound: Cc1cnc(CNC(=O)c2c(=O)c3ccc(N4CCCN(C)CC4)nc3n3c2sc2ccccc23)cn1 [CX-5461] + NC(=O)Nc1cc(-c2cccc(F)c2)sc1C(=O)N[C@H]1CCCNC1 [AZD7762] (partner 0.2 µM)
Summary of the method: as §1

[4] = compound: O=C(Nc1cc(C(F)(F)F)cc(C(F)(F)F)c1)c1cc(Cl)ccc1O [IMD-0354] + Cc1nc(NC(=O)N2CCC[C@H]2C(N)=O)sc1-c1ccnc(C(C)(C)C(F)(F)F)c1 [Alpelisib] (partner 2 µM)
Summary of the method: as §1

Cell Line	relative viability ([1]; first compound 0.01 µM)	relative viability ([1]; first compound 0.03162 µM)	relative viability ([1]; first compound 0.1 µM)	relative viability ([1]; first compound 0.3162 µM)	relative viability ([1]; first compound 1 µM)	relative viability ([2]; first compound 0.01 µM)	relative viability ([2]; first compound 0.03162 µM)	relative viability ([2]; first compound 0.1 µM)	relative viability ([2]; first compound 0.3162 µM)	relative viability ([2]; first compound 1 µM)	relative viability ([3]; first compound 0.01 µM)	relative viability ([3]; first compound 0.03162 µM)	relative viability ([3]; first compound 0.1 µM)	relative viability ([3]; first compound 0.3162 µM)	relative viability ([3]; first compound 1 µM)	relative viability ([4]; first compound 0.04 µM)	relative viability ([4]; first compound 0.1265 µM)	relative viability ([4]; first compound 0.4 µM)	relative viability ([4]; first compound 1.265 µM)	relative viability ([4]; first compound 4 µM)
NCI-H2126	0.75	0.684	0.717	0.783	0.63	0.842	0.842	0.758	0.765	0.668	1.1	1.05	0.981	1.05	0.903	0.784	0.722	0.682	0.714	0.263
NCI-H3122	1.07	0.882	0.938	0.672	0.668	0.389	0.537	0.352	0.314	0.262	1.06	0.946	0.936	1.03	0.607	0.845	0.917	0.365	0.271	0.163
NCI-H1975	0.842	0.735	0.661	0.865	0.329	0.744	0.815	0.577	0.744	0.211	0.792	0.729	0.737	0.847	0.425	0.799	0.679	0.36	0.167	0.204
NCI-H2170	0.812	0.666	0.754	0.707	0.747	0.781	0.768	0.727	0.581	0.637	1.09	0.92	1.01	0.917	0.504	0.752	0.785	0.603	0.835	0.373
LU99A	0.338	0.295	0.333	0.257	0.258	0.265	0.259	0.253	0.241	0.272	0.44	0.303	0.212	0.245	0.122	0.517	0.493	0.345	0.247	0.195
NCI-H2347	0.326	0.395	0.411	0.553	0.395	0.544	0.563	0.474	0.536	0.454	0.825	0.716	0.688	0.767	0.605	1.05	1.12	0.772	0.498	0.37
NCI-H2009	0.696	0.651	0.471	0.697	0.516	0.714	0.776	0.53	0.713	0.548						1.14	1.03	0.929	0.239	0.127
COR-L23	0.802	0.808	0.7	0.835	0.472	0.246	0.202	0.176	0.182	0.119						0.728	0.776	0.427	0.136	0.164
NCI-H1299																1.01	1.02	0.709	0.276	0.194
NCI-H1650	0.678	0.643	0.283	0.497	0.182	0.398	0.389	0.261	0.357	0.239										
COR-L 105	0.767	0.665	0.532	0.391	0.445	0.342	0.339	0.4	0.371	0.306						1.06	0.76	0.902	0.604	0.287
ChaGo-K-1	0.578	0.636	0.537	0.331	0.315	0.185	0.227	0.247	0.229	0.232	0.976	0.909	0.758	0.478	0.698					
NCI-H2228	0.629	0.428	0.361	0.272	0.13	0.245	0.213	0.224	0.261	0.0867						0.686	0.738	0.631	0.263	0.182
NCI-H1648		0.256	0.277	0.27	0.27		0.654	0.607	0.397	0.514	0.647	0.785	0.655	0.771	0.592					
NCI-H661	0.654	0.698	0.615	0.834	0.387	0.35	0.347	0.348	0.351	0.338						0.838	0.772	0.401	0.345	0.248
NCI-H1563	0.715	0.745	0.691	0.771	0.52											0.875	0.889	0.886	0.726	0.399
A549																0.776	0.695	0.509	0.0677	0.0557
NCI-H522	0.739	0.771	0.77		0.669	0.521	0.44	0.597		0.646	1.09	0.98	0.713		0.79					
NCI-H1623	0.394	0.434	0.481	0.41	0.417	0.465	0.406	0.44	0.463	0.372										
SW 900	0.423	0.601	0.488	0.386	0.271	0.555	0.525	0.544	0.609	0.537	0.657	0.627		0.544	0.311					
IA-LM																0.806	0.617	0.634	0.106	0.178
SK-MES-1	0.586	0.57	0.582	0.607	0.372	1	0.977	0.728	0.815	0.294						0.976	0.834	0.598	0.283	0.285
EBC-1																0.882	0.788	0.559	0.174	0.227
